Laboratory results reported in PubChem BioAssay AID248 (DTP/NCI, 2004).
Where “and” joins values, the source holds several entries; their conditions need not be identical. Equal values may be shown once. Inconclusive results and toxic doses are left out. No stated cut-off is given here; in the data, active means T/C of 150% or more; inactive means T/C below 125%.

Tested on: L1210 leukemia ip in BDF1 mice, survival T/C
Assay: NCI In Vivo Anticancer Drug Screen. Data for tumor model L1210 Leukemia (intraperitoneal) in B6D2F1 (BDF1) mice
Settings: endpoint: mean survival time, higher = longer survival
Method in brief: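 In this screen, tumor-bearing mice given compound are compared to those given vehicle, and their survival values are reported as a treated-to-control quotient.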

[1] = dose: 400.0 mg/kg/injection, schedule: Q01DX001 (ip), vehicle: Klucel (hydroxypropylcellulose) (HPC)
[2] = dose: 50.0 mg/kg/injection, schedule: Q04DX003 (ip), vehicle: Klucel (hydroxypropylcellulose) (HPC)
[3] = dose: 100.0 mg/kg/injection, schedule: Q01DX001 (ip), vehicle: Klucel (hydroxypropylcellulose) (HPC)
[4] = dose: 100.0 mg/kg/injection, schedule: Q04DX003 (ip), vehicle: Klucel (hydroxypropylcellulose) (HPC)
[5] = dose: 200.0 mg/kg/injection, schedule: Q01DX001 (ip), vehicle: Klucel (hydroxypropylcellulose) (HPC)
[6] = dose: 200.0 mg/kg/injection, schedule: Q04DX003 (ip), vehicle: Klucel (hydroxypropylcellulose) (HPC)
[7] = dose: 400.0 mg/kg/injection, schedule: Q04DX003 (ip), vehicle: Klucel (hydroxypropylcellulose) (HPC)
[8] = dose: 100.0 mg/kg/injection, schedule: Q04DX002 (ip), vehicle: saline
[9] = dose: 200.0 mg/kg/injection, schedule: Q04DX002 (ip), vehicle: saline
[10] = dose: 400.0 mg/kg/injection, schedule: Q04DX002 (ip), vehicle: saline
[11] = dose: 50.0 mg/kg/injection, schedule: Q01DX001 (ip), vehicle: carboxymethylcellulose (CMC)
[12] = dose: 100.0 mg/kg/injection, schedule: Q01DX001 (ip), vehicle: carboxymethylcellulose (CMC)
[13] = dose: 200.0 mg/kg/injection, schedule: Q01DX001 (ip), vehicle: carboxymethylcellulose (CMC)
[14] = dose: 400.0 mg/kg/injection, schedule: Q01DX001 (ip), vehicle: carboxymethylcellulose (CMC)
[15] = dose: 100.0 mg/kg/injection, schedule: Q01DX001 (ip), vehicle: saline
[16] = dose: 200.0 mg/kg/injection, schedule: Q01DX001 (ip), vehicle: saline
[17] = dose: 400.0 mg/kg/injection, schedule: Q01DX001 (ip), vehicle: saline
[18] = dose: 50.0 mg/kg/injection, schedule: Q01DX009 (ip), vehicle: saline
[19] = dose: 100.0 mg/kg/injection, schedule: Q01DX009 (ip), vehicle: saline
[20] = dose: 100.0 mg/kg/injection, schedule: Q04DX003 (ip), vehicle: saline
[21] = dose: 100.0 mg/kg/injection, schedule: Q04DX003 (ip), vehicle: saline with Tween-80
[22] = dose: 200.0 mg/kg/injection, schedule: Q04DX003 (ip), vehicle: saline with Tween-80
[23] = dose: 400.0 mg/kg/injection, schedule: Q04DX003 (ip), vehicle: saline with Tween-80
[24] = dose: 200.0 mg/kg/injection, schedule: Q01DX009 (ip), vehicle: saline
[25] = dose: 400.0 mg/kg/injection, schedule: Q01DX009 (ip), vehicle: saline
[26] = dose: 25.0 mg/kg/injection, schedule: Q01DX009 (ip), vehicle: saline with Tween-80
[27] = dose: 200.0 mg/kg/injection, schedule: Q04DX003 (ip), vehicle: saline
[28] = dose: 400.0 mg/kg/injection, schedule: Q04DX003 (ip), vehicle: saline
[29] = dose: 50.0 mg/kg/injection, schedule: Q01DX001 (ip), vehicle: saline
[30] = dose: 100.0 mg/kg/injection, schedule: Q01DX001 (ip), vehicle: saline with Tween-80
[31] = dose: 200.0 mg/kg/injection, schedule: Q01DX001 (ip), vehicle: saline with Tween-80
[32] = dose: 400.0 mg/kg/injection, schedule: Q01DX001 (ip), vehicle: saline with Tween-80
[33] = dose: 100.0 mg/kg/injection, schedule: Q01DX009 (ip), vehicle: saline with Tween-80

Measured: T/C

CCCCCCCCCCCCCCCCOc1ccc(Sc2ccc([N+](=O)[O-])cc2)cc1
inactive: [1] 87 % of control

O=C(NC(=O)C(Cl)Cl)Nc1cccc2c1Cc1ccccc1-2
inactive: [2] 105 % of control | [3] 100 % of control | dose: 100.0 mg/kg/injection, schedule: Q01DX009 (ip), vehicle: Klucel (hydroxypropylcellulose) (HPC) 98 % of control | [4] 96 % of control and 101 % of control | [5] 89 % of control | dose: 200.0 mg/kg/injection, schedule: Q01DX009 (ip), vehicle: Klucel (hydroxypropylcellulose) (HPC) 93 % of control | [6] 100 % of control | [1] 94 % of control | dose: 400.0 mg/kg/injection, schedule: Q01DX009 (ip), vehicle: Klucel (hydroxypropylcellulose) (HPC) 93 % of control | [7] 90 % of control and 92 % of control

O=C(Nc1ccccc1)Nc1cccc([N+](=O)[O-])c1
inactive: [8] 100 % of control | [9] 92 % of control | [10] 103 % of control

CCOC(=O)C1CC2(c3ccccc3)C(c3ccccc3)=C(c3ccccc3)C1(c1ccccc1)C2O (stereo not drawn)
inactive: [11] 94 % of control | [12] 94 % of control | [13] 103 % of control | [14] 94 % of control

C=C(CSCC(=O)O)c1ccccc1
inactive: [8] 105 % of control | [9] 97 % of control | [10] 97 % of control

CC(=O)Oc1ccc2nccc(C)c2c1
inactive: [15] 100 % of control | [16] 100 % of control | [17] 100 % of control

CCOC(=O)C1C2C=CC=CC(=O)C21 (stereo not drawn)
inactive: dose: 100.0 mg/kg/injection, schedule: Q01DX009 (ip), vehicle: other 102 % of control | dose: 100.0 mg/kg/injection, schedule: Q04DX003 (ip), vehicle: other 95 % of control | dose: 200.0 mg/kg/injection, schedule: Q01DX009 (ip), vehicle: other 95 % of control | dose: 200.0 mg/kg/injection, schedule: Q04DX003 (ip), vehicle: other 95 % of control | dose: 400.0 mg/kg/injection, schedule: Q04DX003 (ip), vehicle: other 105 % of control

O=COc1ccc([N+](=O)[O-])cc1
inactive: dose: 25.0 mg/kg/injection, schedule: Q01DX009 (ip), vehicle: saline 98 % of control | [18] 95 % of control | [19] 98 % of control | [20] 101 % of control

O=C(c1ccccc1)C(Cl)C(=O)c1ccccc1
inactive: dose: 12.5 mg/kg/injection, schedule: Q04DX003 (ip), vehicle: Klucel (hydroxypropylcellulose) (HPC) 94 % of control | dose: 25.0 mg/kg/injection, schedule: Q04DX003 (ip), vehicle: Klucel (hydroxypropylcellulose) (HPC) 115 % of control | [2] 96 % of control | [3] 98 % of control | [4] 100 % of control | [5] 97 % of control | [1] 95 % of control

CCCCCCCCCCCCCSc1ccc(Br)cc1
inactive: [21] 96 % of control | [22] 96 % of control | [23] 96 % of control

COCc1nc2ccccc2[nH]1
inactive: [21] 106 % of control | [22] 97 % of control | [23] 93 % of control

CN(C)C(=O)CCl
inactive: [19] 96 % of control | [24] 98 % of control | [25] 104 % of control

CCCCNCCC(=O)c1ccc(Cl)cc1
inactive: dose: 6.25 mg/kg/injection, schedule: Q01DX009 (ip), vehicle: saline with Tween-80 98 % of control | dose: 12.5 mg/kg/injection, schedule: Q01DX009 (ip), vehicle: saline with Tween-80 100 % of control | [26] 94 % of control

Cc1ccc(S(=O)(=O)Oc2ccc(-c3ccc(Br)cc3)cc2)cc1
inactive: dose: 75.0 mg/kg/injection, schedule: Q01DX001 (ip), vehicle: saline 97 % of control | dose: 150.0 mg/kg/injection, schedule: Q01DX001 (ip), vehicle: saline 105 % of control | dose: 300.0 mg/kg/injection, schedule: Q01DX001 (ip), vehicle: saline 105 % of control

CCN(C)O
inactive: [19] 109 % of control | [20] 110 % of control | [24] 111 % of control | [27] 105 % of control | [25] 104 % of control | [28] 114 % of control

Cc1ccc(S(=O)(=O)OCCN(CCOS(=O)(=O)c2ccc(C)cc2)c2cccc([N+](=O)[O-])c2)cc1
inactive: [29] 97 % of control | [15] 100 % of control | [16] 97 % of control | [17] 88 % of control

O=[N+]([O-])c1ccc2nc(NCCCO)c3ccccc3c2c1
inactive: [4] 120 % of control | [6] 124 % of control | [7] 96 % of control

Cc1cc(=O)c2cc(Cc3ccc4[nH]c(C)cc(=O)c4c3)ccc2[nH]1
inactive: [18] 91 % of control | [19] 88 % of control | [20] 94 % of control | [27] 94 % of control | [28] 93 % of control

C1CCC2(CC1)CCNCC2
inactive: [29] 102 % of control

CC(=O)Nc1cccc(C)c1C
inactive: dose: 100.0 mg/kg/injection, schedule: Q04DX002 (ip), vehicle: Klucel (hydroxypropylcellulose) (HPC) 107 % of control | dose: 200.0 mg/kg/injection, schedule: Q04DX002 (ip), vehicle: Klucel (hydroxypropylcellulose) (HPC) 100 % of control | dose: 400.0 mg/kg/injection, schedule: Q04DX002 (ip), vehicle: Klucel (hydroxypropylcellulose) (HPC) 103 % of control

c1ccc(-c2ccc(-c3c(-c4ccccc4)ccc(-c4ccccc4)c3-c3ccccc3)cc2)cc1
inactive: [30] 104 % of control | [31] 104 % of control | [32] 112 % of control

Cc1ccc(C(=O)OCC2OC(OC3CC(OC(=O)c4ccc(C)cc4)C(COC(=O)c4ccc(C)cc4)O3)CC2OC(=O)c2ccc(C)cc2)cc1 (stereo not drawn)
inactive: [11] 101 % of control | [12] 87 % of control | [13] 101 % of control | [14] 97 % of control

N#CC(C#N)=c1ccc(=C(C#N)C#N)cc1
inactive: [26] 91 % of control | [29] 94 % of control | dose: 50.0 mg/kg/injection, schedule: Q01DX009 (ip), vehicle: saline with Tween-80 89 % of control | [15] 103 % of control | [33] 91 % of control | [16] 103 % of control

CC1=CC(=O)CC(c2ccccc2)C1 (stereo not drawn)
inactive: [12] 105 % of control | [13] 103 % of control | [14] 109 % of control

O=C1C=CC(=Nc2ccc(O)c3ncccc23)c2cccnc21
inactive: dose: 100.0 mg/kg/injection, schedule: Q01DX001 (ip), vehicle: other 104 % of control and 114 % of control | dose: 200.0 mg/kg/injection, schedule: Q01DX001 (ip), vehicle: other 106 % of control and 108 % of control | dose: 400.0 mg/kg/injection, schedule: Q01DX001 (ip), vehicle: other 102 % of control

CCc1ccccc1NC(=O)Oc1ccc(SC)cc1
inactive: [30] 102 % of control | [33] 97 % of control and 99 % of control | dose: 100.0 mg/kg/injection, schedule: Q04DX002 (ip), vehicle: saline with Tween-80 93 % of control and 94 % of control | [31] 98 % of control | dose: 200.0 mg/kg/injection, schedule: Q01DX009 (ip), vehicle: saline with Tween-80 97 % of control and 89 % of control | dose: 200.0 mg/kg/injection, schedule: Q04DX002 (ip), vehicle: saline with Tween-80 96 % of control and 97 % of control | [32] 93 % of control | dose: 400.0 mg/kg/injection, schedule: Q04DX002 (ip), vehicle: saline with Tween-80 96 % of control and 107 % of control | [23] 90 % of control

Oc1ccccc1C=Nc1cccc(Cl)c1Cl
inactive: [4] 91 % of control | [6] 98 % of control | [7] 100 % of control
